Assay results from ChEMBL document CHEMBL1201862, “PubChem BioAssay data set” (2004).
The source made the active and inactive calls.

Legend:
[1] = target: Melanin-concentrating hormone receptor 1 (Homo sapiens, UniProt Q99705); assay: Late-stage fluorescence-based counterscreen for antagonists of the G-protein coupled receptor 7 (GPR7): cell-based dose response assay to identify antagonists of the melanin-concentrating hormone receptor 1 (MCHR1) Set 6.; assay type: functional
[2] = target: Neuropeptides B/W receptor type 1 (Homo sapiens, UniProt P48145); assay: GPR7 antagonist potency, late-stage follow-up, cell-based, fluorescence, dose response, set 6 (AID 588583); assay type: functional
[3] = target: cAMP-dependent protein kinase catalytic subunit alpha (Homo sapiens, UniProt P17612); assay type: functional
[4] = target: Death-associated protein kinase 3 (Homo sapiens, UniProt O43293); assay type: functional;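 also: measured as one member of a kinome-wide profiling panel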
[5] = target: MAP kinase-activated protein kinase 2 (Homo sapiens, UniProt P49137); assay type: functional;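 also: measured as one member of a kinome-wide kinase panel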
[6] = target: Vascular endothelial growth factor receptor 3 (Homo sapiens, UniProt P35916); assay type: functional;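 also: value from a kinome-wide profiling panel, with FLT4 as the panel member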
Sequence of Vascular endothelial growth factor receptor 3 (P35916 whole entry, canonical isoform): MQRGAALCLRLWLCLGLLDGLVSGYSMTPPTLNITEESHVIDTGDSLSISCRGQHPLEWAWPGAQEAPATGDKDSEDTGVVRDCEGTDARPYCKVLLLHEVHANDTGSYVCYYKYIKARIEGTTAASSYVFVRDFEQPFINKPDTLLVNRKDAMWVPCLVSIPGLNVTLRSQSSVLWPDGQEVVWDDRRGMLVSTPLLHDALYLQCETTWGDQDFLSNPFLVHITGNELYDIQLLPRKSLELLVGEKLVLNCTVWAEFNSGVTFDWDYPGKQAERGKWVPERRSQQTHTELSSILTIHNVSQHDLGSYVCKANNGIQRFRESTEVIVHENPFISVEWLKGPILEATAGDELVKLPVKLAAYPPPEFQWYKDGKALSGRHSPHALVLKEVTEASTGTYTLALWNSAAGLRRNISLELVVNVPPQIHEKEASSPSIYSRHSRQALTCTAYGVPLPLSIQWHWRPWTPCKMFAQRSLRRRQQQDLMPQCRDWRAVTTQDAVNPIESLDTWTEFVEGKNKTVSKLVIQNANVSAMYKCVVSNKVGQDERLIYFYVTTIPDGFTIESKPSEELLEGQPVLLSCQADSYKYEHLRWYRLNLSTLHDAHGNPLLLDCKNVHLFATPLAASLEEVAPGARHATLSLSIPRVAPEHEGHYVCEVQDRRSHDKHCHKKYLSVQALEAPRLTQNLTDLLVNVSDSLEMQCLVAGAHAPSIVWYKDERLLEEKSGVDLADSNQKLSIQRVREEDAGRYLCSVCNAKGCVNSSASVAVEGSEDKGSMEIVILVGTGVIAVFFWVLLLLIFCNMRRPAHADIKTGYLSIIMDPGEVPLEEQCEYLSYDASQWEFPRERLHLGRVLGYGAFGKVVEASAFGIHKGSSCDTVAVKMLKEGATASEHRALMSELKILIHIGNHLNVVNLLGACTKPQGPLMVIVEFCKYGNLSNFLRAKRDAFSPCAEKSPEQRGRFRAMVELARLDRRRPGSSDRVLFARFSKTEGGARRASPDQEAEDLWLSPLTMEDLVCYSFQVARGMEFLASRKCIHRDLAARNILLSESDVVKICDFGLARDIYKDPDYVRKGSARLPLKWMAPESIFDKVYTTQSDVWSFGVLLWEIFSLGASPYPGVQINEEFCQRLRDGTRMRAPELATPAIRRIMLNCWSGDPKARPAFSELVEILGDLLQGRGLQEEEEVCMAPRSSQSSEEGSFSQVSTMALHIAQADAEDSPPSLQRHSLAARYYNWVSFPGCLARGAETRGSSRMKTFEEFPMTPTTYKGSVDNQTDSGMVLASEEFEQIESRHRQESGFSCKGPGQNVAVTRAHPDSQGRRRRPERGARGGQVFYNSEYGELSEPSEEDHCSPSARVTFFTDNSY

[7] = target: Casein kinase I isoform delta (Homo sapiens, UniProt P48730); assay type: functional;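 also: measured as one member (CSNK1D) of a kinome panel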
[8] = target: Mitogen-activated protein kinase 12 (Homo sapiens, UniProt P53778); assay type: functional;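 also: measured as one member of a kinome-wide kinase profiling panel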
[9] = target: BDNF/NT-3 growth factors receptor (Homo sapiens, UniProt Q16620); assay type: functional;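 also: NTRK2 measured as one member of a broad kinome-wide kinase profiling panel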
[10] = target: Casein kinase II subunit alpha (Homo sapiens, UniProt P68400); assay type: functional
[11] = target: Serine/threonine-protein kinase pim-1 (Homo sapiens, UniProt P11309); assay type: functional
[12] = target: Protein kinase C zeta type (Homo sapiens, UniProt Q05513); assay type: functional;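 also: measured as one member of a broad kinase profiling panel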
[13] = target: Inhibitor of nuclear factor kappa-B kinase subunit alpha (Homo sapiens, UniProt O15111); assay type: functional
[14] = target: Serine/threonine-protein kinase PLK4 (Homo sapiens, UniProt O00444); assay type: functional;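 also: PLK4 measured as one member of a kinome-wide kinase profiling panel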
[15] = target: Tyrosine-protein kinase JAK3 (Homo sapiens, UniProt P52333); assay type: functional
[16] = target: Aurora kinase A (Homo sapiens, UniProt O14965); assay type: functional;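 also: value from the Navigating the Kinome kinase panel profiling, panel entry STK6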
[17] = target: Glycogen synthase kinase-3 beta (Homo sapiens, UniProt P49841); assay type: functional;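 also: value comes from a broad kinome profiling panel, with GSK3B as the panel member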
[18] = target: Protein kinase C delta type (Homo sapiens, UniProt Q05655); assay type: functional
[19] = target: Glycogen synthase kinase-3 alpha (Homo sapiens, UniProt P49840); assay type: functional;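 also: GSK3A result taken from a broad kinome-wide kinase panel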
Sequence of Glycogen synthase kinase-3 alpha (P49840 whole entry): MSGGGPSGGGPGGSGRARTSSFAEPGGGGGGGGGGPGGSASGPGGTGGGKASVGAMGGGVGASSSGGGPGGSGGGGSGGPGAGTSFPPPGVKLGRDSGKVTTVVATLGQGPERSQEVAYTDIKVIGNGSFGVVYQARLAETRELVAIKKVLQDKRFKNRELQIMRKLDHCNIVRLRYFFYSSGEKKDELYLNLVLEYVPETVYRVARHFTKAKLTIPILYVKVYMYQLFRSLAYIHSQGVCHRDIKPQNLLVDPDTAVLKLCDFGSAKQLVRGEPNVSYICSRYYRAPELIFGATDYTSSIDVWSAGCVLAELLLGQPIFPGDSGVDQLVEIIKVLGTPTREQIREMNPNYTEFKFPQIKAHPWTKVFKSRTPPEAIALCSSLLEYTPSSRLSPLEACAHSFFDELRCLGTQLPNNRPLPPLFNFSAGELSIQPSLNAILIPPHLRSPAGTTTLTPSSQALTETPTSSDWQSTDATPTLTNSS

[20] = target: Interleukin-1 receptor-associated kinase 4 (Homo sapiens, UniProt Q9NWZ3); assay type: functional
[21] = target: Inhibitor of nuclear factor kappa-B kinase subunit beta (Homo sapiens, UniProt O14920); assay type: functional
[22] = target: Mitogen-activated protein kinase 9 (Homo sapiens, UniProt P45984); assay type: functional;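 also: value from a kinome panel profiling assay, MAPK9 panel entry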
[23] = target: Proto-oncogene tyrosine-protein kinase Src (Homo sapiens, UniProt P12931); assay type: functional;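 also: SRC entry within a kinome-wide kinase profiling panel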
[24] = target: Receptor tyrosine-protein kinase erbB-4 (Homo sapiens, UniProt Q15303); assay type: functional;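 also: ERBB4 member of a kinome-wide kinase profiling panel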
[25] = target: Vascular endothelial growth factor receptor 2 (Homo sapiens, UniProt P35968); assay type: functional
[26] = target: Serine/threonine-protein kinase PAK 1 (Homo sapiens, UniProt Q13153); assay type: functional
[27] = target: Protein kinase C gamma type (Homo sapiens, UniProt P05129); assay type: functional
[28] = target: Serine/threonine-protein kinase MRCK alpha (Homo sapiens, UniProt Q5VT25); assay type: functional
[29] = target: Serine/threonine-protein kinase PLK1 (Homo sapiens, UniProt P53350); assay type: functional;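 also: PLK1 measured as one member of a kinome-wide profiling panel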
[30] = target: Serine/threonine-protein kinase PAK 4 (Homo sapiens, UniProt O96013); assay type: functional;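 also: value obtained within a kinome profiling panel in which PAK4 was one of the panel members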
Sequence of Serine/threonine-protein kinase PAK 4 (O96013 whole entry): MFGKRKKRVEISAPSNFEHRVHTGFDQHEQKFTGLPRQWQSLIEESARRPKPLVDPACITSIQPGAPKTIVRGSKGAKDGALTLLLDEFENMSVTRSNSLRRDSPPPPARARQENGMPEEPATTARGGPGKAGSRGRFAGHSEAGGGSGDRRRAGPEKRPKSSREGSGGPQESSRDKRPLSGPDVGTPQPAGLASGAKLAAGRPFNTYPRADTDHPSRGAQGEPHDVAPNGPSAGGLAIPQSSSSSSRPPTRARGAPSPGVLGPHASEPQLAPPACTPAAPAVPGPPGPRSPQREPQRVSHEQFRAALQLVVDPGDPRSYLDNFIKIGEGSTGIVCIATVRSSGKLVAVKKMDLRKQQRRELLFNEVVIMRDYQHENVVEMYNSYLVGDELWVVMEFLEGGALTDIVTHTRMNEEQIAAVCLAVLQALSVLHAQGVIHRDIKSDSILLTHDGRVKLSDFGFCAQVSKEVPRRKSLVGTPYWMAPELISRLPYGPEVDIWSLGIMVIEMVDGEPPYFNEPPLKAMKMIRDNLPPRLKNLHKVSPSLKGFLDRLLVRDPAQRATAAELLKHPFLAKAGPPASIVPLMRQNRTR

[31] = target: Cyclin-dependent kinase 5 (Homo sapiens, UniProt Q00535); assay type: functional;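 also: CDK5 measured as one member of a kinase profiling panel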
[32] = target: 3-phosphoinositide-dependent protein kinase 1 (Homo sapiens, UniProt O15530); assay type: functional;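 also: value comes from the Navigating the Kinome panel, PDPK1 member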
Sequence of 3-phosphoinositide-dependent protein kinase 1 (O15530 whole entry): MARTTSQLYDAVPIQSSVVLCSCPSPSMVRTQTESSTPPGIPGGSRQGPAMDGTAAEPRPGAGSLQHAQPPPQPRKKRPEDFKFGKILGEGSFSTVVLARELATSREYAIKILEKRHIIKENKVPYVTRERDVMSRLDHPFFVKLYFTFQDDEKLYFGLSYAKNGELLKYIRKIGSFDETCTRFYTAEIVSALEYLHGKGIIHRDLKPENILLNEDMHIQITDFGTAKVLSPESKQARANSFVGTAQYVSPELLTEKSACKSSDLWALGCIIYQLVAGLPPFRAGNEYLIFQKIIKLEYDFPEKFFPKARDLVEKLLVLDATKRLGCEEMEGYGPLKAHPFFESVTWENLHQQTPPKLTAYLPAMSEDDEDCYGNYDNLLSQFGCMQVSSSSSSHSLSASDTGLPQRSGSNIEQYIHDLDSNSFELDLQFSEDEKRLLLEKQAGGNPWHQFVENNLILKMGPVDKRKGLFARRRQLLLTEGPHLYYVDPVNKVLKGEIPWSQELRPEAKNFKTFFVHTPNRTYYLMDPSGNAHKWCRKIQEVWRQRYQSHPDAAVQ

[33] = target: MAP kinase-activated protein kinase 3 (Homo sapiens, UniProt Q16644); assay type: functional;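 also: value comes from a kinome-wide profiling panel in which MAPKAPK3 is one of the panel members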
[34] = target: Serine/threonine-protein kinase 3 (Homo sapiens, UniProt Q13188); assay type: functional;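 also: measured as one member of a kinome-wide kinase panel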
[35] = target: Fibroblast growth factor receptor 1 (Homo sapiens, UniProt P11362); assay type: functional
[36] = target: Rho-associated protein kinase 1 (Homo sapiens, UniProt Q13464); assay type: functional;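 also: measured within a broad kinome-wide panel profiling many kinases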
[37] = target: Serine/threonine-protein kinase Chk1 (Homo sapiens, UniProt O14757); assay type: functional;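 also: measured as one member of a kinome-wide kinase profiling panel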
[38] = target: MAP/microtubule affinity-regulating kinase 3 (Homo sapiens, UniProt P27448); assay type: functional;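 also: MARK3 affinity measured as one member of a kinome panel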
[39] = target: Mitogen-activated protein kinase 1 (Homo sapiens, UniProt P28482); assay type: functional
[40] = target: 5'-AMP-activated protein kinase catalytic subunit alpha-1 (Homo sapiens, UniProt Q13131); assay type: functional
[41] = target: Tyrosine-protein kinase Blk (Homo sapiens, UniProt P51451); assay type: functional;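 also: obtained as one member of a kinome-wide kinase assay panel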
Sequence of Tyrosine-protein kinase Blk (P51451 whole entry, the tested form may be a part): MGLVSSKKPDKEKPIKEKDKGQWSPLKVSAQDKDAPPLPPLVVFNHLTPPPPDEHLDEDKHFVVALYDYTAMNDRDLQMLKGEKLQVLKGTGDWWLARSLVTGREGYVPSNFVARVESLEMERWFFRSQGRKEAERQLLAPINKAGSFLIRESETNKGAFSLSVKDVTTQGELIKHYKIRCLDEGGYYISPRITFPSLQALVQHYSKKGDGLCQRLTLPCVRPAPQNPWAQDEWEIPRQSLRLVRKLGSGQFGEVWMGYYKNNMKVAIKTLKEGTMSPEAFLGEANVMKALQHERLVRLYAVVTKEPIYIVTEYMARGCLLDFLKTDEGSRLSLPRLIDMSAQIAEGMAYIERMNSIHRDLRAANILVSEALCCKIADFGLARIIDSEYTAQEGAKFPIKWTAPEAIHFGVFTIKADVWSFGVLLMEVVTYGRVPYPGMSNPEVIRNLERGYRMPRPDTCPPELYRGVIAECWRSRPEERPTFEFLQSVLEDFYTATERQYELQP

[42] = target: LIM domain kinase 1 (Homo sapiens, UniProt P53667); assay: Navigating the Kinome. Panel member name: LIMK1; assay type: functional
[43] = target: Ribosomal protein S6 kinase beta-1 (Homo sapiens, UniProt P23443); assay type: functional;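 also: measured as one member of a kinome-wide profiling panel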
[44] = target: RAC-alpha serine/threonine-protein kinase (Homo sapiens, UniProt P31749); assay type: functional;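 also: AKT1 affinity measured as one member of a kinome-wide kinase profiling panel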
[45] = target: Mitogen-activated protein kinase 8 (Homo sapiens, UniProt P45983); assay type: functional;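 also: value comes from one member of a kinome-wide kinase profiling panel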
[46] = target: Insulin receptor (Homo sapiens, UniProt P06213); assay type: functional;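 also: insulin receptor kinase tested as one member of a kinome-wide kinase panel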
Sequence of Insulin receptor (P06213 28-758 limits assumed): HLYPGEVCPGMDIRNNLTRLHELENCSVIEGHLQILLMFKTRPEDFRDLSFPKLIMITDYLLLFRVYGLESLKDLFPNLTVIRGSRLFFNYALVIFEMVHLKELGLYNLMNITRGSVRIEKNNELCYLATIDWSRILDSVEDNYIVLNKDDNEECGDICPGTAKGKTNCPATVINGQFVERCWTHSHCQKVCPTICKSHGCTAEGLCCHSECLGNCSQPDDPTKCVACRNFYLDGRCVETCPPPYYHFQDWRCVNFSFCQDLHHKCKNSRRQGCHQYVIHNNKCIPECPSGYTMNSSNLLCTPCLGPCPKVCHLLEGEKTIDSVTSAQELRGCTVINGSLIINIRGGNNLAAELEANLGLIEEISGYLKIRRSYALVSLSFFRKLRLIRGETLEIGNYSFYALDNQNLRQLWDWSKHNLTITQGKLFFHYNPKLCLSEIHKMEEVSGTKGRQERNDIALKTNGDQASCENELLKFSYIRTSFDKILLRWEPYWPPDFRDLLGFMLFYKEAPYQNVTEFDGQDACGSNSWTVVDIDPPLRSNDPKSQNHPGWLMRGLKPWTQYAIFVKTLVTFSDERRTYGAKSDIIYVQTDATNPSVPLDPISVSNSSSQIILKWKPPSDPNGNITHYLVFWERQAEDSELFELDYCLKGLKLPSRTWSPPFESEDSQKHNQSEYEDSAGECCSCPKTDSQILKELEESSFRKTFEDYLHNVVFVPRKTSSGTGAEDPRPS
Sequence of Insulin receptor (P06213 763-1382 limits assumed): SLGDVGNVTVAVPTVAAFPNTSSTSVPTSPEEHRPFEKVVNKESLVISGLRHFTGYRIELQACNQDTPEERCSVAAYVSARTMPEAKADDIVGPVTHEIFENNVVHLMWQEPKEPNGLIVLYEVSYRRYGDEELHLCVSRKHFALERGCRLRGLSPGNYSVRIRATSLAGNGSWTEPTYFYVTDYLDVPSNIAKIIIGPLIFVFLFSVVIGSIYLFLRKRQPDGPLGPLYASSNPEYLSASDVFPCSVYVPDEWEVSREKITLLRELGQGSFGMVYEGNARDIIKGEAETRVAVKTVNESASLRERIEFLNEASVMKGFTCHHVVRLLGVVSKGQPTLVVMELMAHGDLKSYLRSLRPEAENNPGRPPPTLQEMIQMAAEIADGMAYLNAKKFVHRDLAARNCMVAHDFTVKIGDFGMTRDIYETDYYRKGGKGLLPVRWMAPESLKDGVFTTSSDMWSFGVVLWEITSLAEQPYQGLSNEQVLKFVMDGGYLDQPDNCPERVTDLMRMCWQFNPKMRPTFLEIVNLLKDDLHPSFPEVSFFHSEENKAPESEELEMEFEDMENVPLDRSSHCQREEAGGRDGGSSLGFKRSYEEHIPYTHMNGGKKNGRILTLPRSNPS

[47] = target: Serine/threonine-protein kinase PLK3 (Homo sapiens, UniProt Q9H4B4); assay type: functional
[48] = target: Calcium/calmodulin-dependent protein kinase type 1 (Homo sapiens, UniProt Q14012); assay type: functional
[49] = target: Cyclin-dependent kinase 1 (Homo sapiens, UniProt P06493); assay type: functional;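 also: Kinome-wide panel profiling, with the target listed as panel member CDC2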
[50] = target: Tyrosine-protein kinase JAK2 (Homo sapiens, UniProt O60674); assay type: functional;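 also: JAK2 tested as one member of a kinase panel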
[51] = target: Aurora kinase B (Homo sapiens, UniProt Q96GD4); assay type: functional
[52] = target: Serine/threonine-protein kinase Nek2 (Homo sapiens, UniProt P51955); assay type: functional
[53] = target: Dual specificity tyrosine-phosphorylation-regulated kinase 1A (Homo sapiens, UniProt Q13627); assay type: functional;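 also: measured against DYRK1A as one member of a broad kinome profiling panel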
[54] = target: Ribosomal protein S6 kinase alpha-3 (Homo sapiens, UniProt P51812); assay type: functional;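 also: measured within a kinome-wide profiling panel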
[55] = target: Serine/threonine-protein kinase Chk2 (Homo sapiens, UniProt O96017); assay type: functional;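 also: CHEK2 entry within a kinome-wide screening panel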
[56] = target: RAC-gamma serine/threonine-protein kinase (Homo sapiens, UniProt Q9Y243); assay type: functional
[57] = inhibitors of intracellular T. cruzi replication, confirmation, NIH3T3 host cells, beta-gal luminescence (AID 2044); assay type: functional, cell-based;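 also: intracellular parasites grown in NIH/3T3 mouse fibroblasts as host cells; luminescent beta-galactosidase reporter signal from transgenic T. cruzi replicating inside host cells; inhibitors lower the luminescence signal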
[58] = target: T1, High affinity choline transporter 1 (Homo sapiens, UniProt Q9GZV3); assay: CHT inhibitors, dose response, cell-based, 10-point CRC, membrane potential dye (AID 588401); assay type: functional;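 also: membrane potential dye fluorescence of choline-evoked depolarization via CHT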
T1 sequence (Q9GZV3 whole entry): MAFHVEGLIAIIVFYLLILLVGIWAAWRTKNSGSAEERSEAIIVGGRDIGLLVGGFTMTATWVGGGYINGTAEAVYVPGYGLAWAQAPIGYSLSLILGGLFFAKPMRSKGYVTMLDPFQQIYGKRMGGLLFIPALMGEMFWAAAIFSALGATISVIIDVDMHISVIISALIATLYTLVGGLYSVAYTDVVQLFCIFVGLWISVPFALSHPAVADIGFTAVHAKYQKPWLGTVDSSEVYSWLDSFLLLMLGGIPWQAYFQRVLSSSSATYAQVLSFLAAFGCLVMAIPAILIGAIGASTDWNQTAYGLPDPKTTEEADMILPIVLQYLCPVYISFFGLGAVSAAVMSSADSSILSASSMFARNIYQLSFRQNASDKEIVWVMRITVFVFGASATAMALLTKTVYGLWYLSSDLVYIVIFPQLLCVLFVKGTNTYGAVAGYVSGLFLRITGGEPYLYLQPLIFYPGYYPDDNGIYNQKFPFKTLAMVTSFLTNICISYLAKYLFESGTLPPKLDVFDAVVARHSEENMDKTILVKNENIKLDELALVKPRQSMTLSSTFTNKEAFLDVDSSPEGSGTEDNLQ

[59] = cytotoxicity toward NIH3T3 fibroblasts, dose response, counter-screen, cell-based, ATP luminescence, mouse fibroblasts (AID 2010); assay type: functional;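 also: cells exposed to compound for about 90 hours before reading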
[60] = target: T1, High affinity choline transporter 1; assay: CHT inhibitors, dose response, cell-based, 5-point CRC, membrane potential dye (AID 504840); assay type: functional

SMILES: Cc1ccccc1C(C#N)c1c(Cl)cnn(Cc2cccc3ccccc23)c1=O (stereo not given)
- IC50 [1]: 0.821 µM (active)
- IC50 [2]: 0.821 µM (active)

SMILES: CCCCCCCCCCCCOc1ccc(NC(=N)N)cc1NC(=N)N [LAUROGUADINE]
- Ki [3]: > 7.94 µM (inactive)
- Ki [4]: 0.316 µM (active)
- Ki [5]: 3.98 µM (active)
- Ki [6]: > 6.31 µM (inactive)
- Ki [7]: > 7.94 µM (inactive)
- Ki [8]: > 6.31 µM (inactive)
- Ki [9]: 2 µM (active)
- Ki [10]: > 6.31 µM (inactive)
- Ki [11]: 1.26 µM (active)
- Ki [12]: 1.26 µM (active)
- Ki [13]: 1.26 µM (active)
- Ki [14]: > 3.98 µM (inactive)
- Ki [15]: 0.794 µM (active)
- Ki [16]: > 6.31 µM (inactive)
- Ki [17]: > 6.31 µM (inactive)
- Ki [18]: 0.631 µM (active)
- Ki [19]: > 7.94 µM (inactive)
- Ki [20]: 3.98 µM (active)
- Ki [21]: > 3.16 µM (inactive)
- Ki [22]: > 3.98 µM (inactive)
- Ki [23]: > 5.01 µM (inactive)
- Ki [24]: 1.58 µM (active)
- Ki [25]: > 7.94 µM (inactive)
- Ki [26]: 1.26 µM (active)
- Ki [27]: 2.51 µM (active)
- Ki [28]: 2.51 µM (active)
- Ki [29]: > 7.94 µM (inactive)
- Ki [30]: > 5.01 µM (inactive)
- Ki [31]: > 10 µM (inactive)
- Ki [32]: > 3.98 µM (inactive)
- Ki [33]: 1.58 µM (active)
- Ki [34]: 3.98 µM (active)
- Ki [35]: > 5.01 µM (inactive)
- Ki [36]: 2.51 µM (active)
- Ki [37]: > 7.94 µM (inactive)
- Ki [38]: > 6.31 µM (inactive)
- Ki [39]: > 7.94 µM (inactive)
- Ki [40]: > 10 µM (inactive)
- Ki [41]: 1 µM (active)
- Ki [42]: 2 µM (active)
- Ki [43]: 1.26 µM (active)
- Ki [44]: 3.98 µM (active)
- Ki [45]: > 3.16 µM (inactive)
- Ki [46]: > 5.01 µM (inactive)
- Ki [47]: > 7.94 µM (inactive)
- Ki [48]: 3.98 µM (active)
- Ki [49]: 3.98 µM (active)
- Ki [50]: 1 µM (active)
- Ki [51]: > 6.31 µM (inactive)
- Ki [52]: > 10 µM (inactive)
- Ki [53]: > 6.31 µM (inactive)
- Ki [54]: 3.98 µM (active)
- Ki [55]: > 10 µM (inactive)
- Ki [56]: > 10 µM (inactive)

SMILES: CCOCCCN(C)C1CCN(C(=O)c2oc3ccccc3c2NC(=O)c2ccc(F)cc2)CC1
- EC50 [57]: 0.267 µM (active)
- IC50 [58]: 6.69 µM (active)
- EC50 [59]: > 60 µM (not active)
- IC50 [60]: 6.85 µM (active)
